Reference: article PMC10452110, “Indole-3-Acetamido-Polyamines as Antimicrobial Agents and Antibiotic Adjuvants” (Biomolecules, 2023)
Converted amounts (≈) assume the structure as drawn. Where two headings read alike, the source gives them in different places. Marks after values point to notes of the source that are not given here.

Columns and labels:
[1] = tested on: Cryptococcus neoformans (ATCC 208821); set-up: method as in Cadelis et al. [15]; settings: C. neoformans ATCC 208821; ref Cadelis et al. [15]; cited from earlier work
[2] = tested on: HEK293 (human embryonic kidney) cells; set-up: method as in Cadelis et al. [15]; settings: ref Cadelis et al. [15], read-out: Cytotoxicity: concentration of compound at 50% cytotoxicity (IC50); cited from earlier work
human red blood cells [3] = tested on: human red blood cells; set-up: method as in Cadelis et al. [15]; settings: ref Cadelis et al. [15]; cited from earlier work
MRSA (ATCC 43300) [4] = settings: ref Cadelis et al. [15]; cited from earlier work
[5] = tested on: Klebsiella pneumoniae (ATCC 700603); set-up: method as in Cadelis et al. [15]; settings: K. pneumoniae ATCC 700603; ref Cadelis et al. [15]; cited from earlier work
[6] = tested on: Staphylococcus aureus (ATCC 25923); set-up: method as in Cadelis et al. [15]; settings: S. aureus ATCC 25923; ref Cadelis et al. [15]; cited from earlier work
P. aeruginosa ATCC 27853 [7] = tested on: P. aeruginosa ATCC 27853; set-up: method as in Cadelis et al. [15]; settings: doxycycline at 4.5 µM, ref Cadelis et al. [15], cited from earlier work; for Dox/P. a fold change (ratio between intrinsic MIC of the test compound and combination MIC): P. aeruginosa ATCC 27853; for Dox/P. a: concentration required to restore doxycycline activity (combination MIC): P. aeruginosa
[8] = tested on: Escherichia coli (ATCC 25922); set-up: method as in Cadelis et al. [15]; settings: E. coli ATCC 25922; ref Cadelis et al. [15]; cited from earlier work
[9] = tested on: Candida albicans (ATCC 90028); set-up: method as in Cadelis et al. [15]; settings: C. albicans ATCC 90028; ref Cadelis et al. [15]; cited from earlier work
[10] = tested on: Acinetobacter baumannii (ATCC 19606); set-up: method as in Cadelis et al. [15]; settings: A. baumannii ATCC 19606; ref Cadelis et al. [15]; cited from earlier work
[11] = tested on: Pseudomonas aeruginosa (ATCC 27853); set-up: method as in Cadelis et al. [15]; settings: P. aeruginosa ATCC 27853; ref Cadelis et al. [15]; cited from earlier work
[12] = tested on: Pseudomonas aeruginosa (ATCC 27853); assay: Intrinsic antimicrobial activity (MIC) against P. aeruginosa; assay type: cell-based; settings: ATCC27853, P. aeruginosa ATCC 27853, mean (n = 3), read-out: MIC P. a
Summary of the method: (§1)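 Antibacterial MICs by established in-house protocol; yeast MICs run externally at CO-ADD, University of Queensland, per their standard screening protocols.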

[13] = tested on: Escherichia coli (ATCC 25922); assay: Intrinsic antimicrobial activity (MIC) against E. coli; assay type: cell-based; settings: ATCC25922, E. coli ATCC 25922, mean (n = 3), read-out: MIC E. c
Summary of the method: (§2)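 Bacterial susceptibility was determined following previously reported protocols. The antifungal evaluations were carried out at the Community for Open Antimicrobial Drug Discovery (University of Queensland, Australia) under its standard protocols.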

E. coli ATCC 25922 = assay: Enhancement of erythromycin action against E. coli; assay type: cell-based, Escherichia coli; settings: erythromycin at 10.9 µM
Procedure: (§3) Antibiotic enhancer concentrations were determined using previously reported protocols.

Cytotoxicity assay = assay type: cell-based; settings: human; HEK293 cells; mean (n = 2); read-out: Cytotoxicity: concentration of compound at 50% cytotoxicity (IC50)
Procedure: Cytotoxicity assays were conducted using the protocols previously reported.

[14] = tested on: Klebsiella pneumoniae (ATCC 700603); assay: Intrinsic antimicrobial activity (MIC) against K. pneumoniae; assay type: cell-based; settings: ATCC700603, K. pneumoniae ATCC 700603, mean (n = 2), read-out: MIC K. p
[15] = tested on: Acinetobacter baumannii (ATCC 19606); assay: Intrinsic antimicrobial activity (MIC) against A. baumannii; assay type: cell-based; settings: ATCC19606, A. baumannii ATCC 19606, mean (n = 2), read-out: MIC A. b
P. aeruginosa ATCC 27853 [16] = assay: Enhancement of doxycycline action against P. aeruginosa; assay type: cell-based, Pseudomonas aeruginosa; settings: doxycycline at 4.5 µM
Procedure: as §3

human red blood cells [17] = assay: Hemolytic assay; assay type: cell-based; settings: mean (n = 2)
Procedure: Hemolysis assays were conducted using the protocols previously reported.

MRSA (CF-Marseille) = assay: Real time growth inhibition curves, microdilution MIC and MBC, MRSA (CF-Marseille); assay type: cell-based, Staphylococcus aureus
Description: (§4) We next assessed the kinetics of antibacterial activity of 15c towards the Gram-positive bacteria S. aureus ATCC 25923 and MRSA (CF-Marseille) by measuring real time growth inhibition curves.

[18] = tested on: Cryptococcus neoformans (ATCC 208821); assay: Intrinsic antifungal activity (MIC) against C. neoformans; assay type: cell-based; settings: ATCC208821, C. neoformans ATCC 208821, mean (n = 2), read-out: MIC C. n
Summary of the method: (§5)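 MIC values come from two sources: bacteria tested by previously reported protocols, and Candida and Cryptococcus tested at the Community for Open Antimicrobial Drug Discovery under standard conditions.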

S. aureus ATCC 25923 = assay: Real time growth inhibition curves, microdilution MIC and MBC, S. aureus; assay type: cell-based, Staphylococcus aureus
Description: as §4

[19] = tested on: Staphylococcus aureus (ATCC 25923); assay: Intrinsic antimicrobial activity (MIC) against S. aureus; assay type: cell-based; settings: ATCC25923, S. aureus ATCC 25923, mean (n = 3), read-out: MIC S. a
Summary of the method: as §1

[20] = tested on: Candida albicans (ATCC 90028); assay: Intrinsic antifungal activity (MIC) against C. albicans; assay type: cell-based; settings: ATCC90028, C. albicans ATCC 90028, mean (n = 2), read-out: MIC C. a
Summary of the method: as §5

MRSA (ATCC 43300) [21] = assay: Intrinsic antimicrobial activity (MIC) against MRSA; assay type: cell-based; settings: Staphylococcus aureus, MRSA ATCC 43300; mean (n = 2); read-out: MIC MRSA
Summary of the method: as §2

[22] = lowest tested concentration 6.4 μM

Structure (SMILES) | MIC [12] [µM] | MIC [13] [µM] | Eryth/E. c: concentration required to restore erythromycin activity (combination MIC) (E. coli ATCC 25922) [µM] | IC50 (Cytotoxicity assay) [µM] | MIC [14] [µM] | MIC [15] [µM] | Dox/P. a: concentration required to restore doxycycline activity (combination MIC) (P. aeruginosa ATCC 27853 [16]) [µM] | Hemolysis: concentration of compound at 10% hemolytic activity (HC10) (human red blood cells [17]) [µM] | MIC [18] [µM] | MIC [19] [µM] | MIC [20] [µM] | MIC (MRSA (ATCC 43300) [21]) [µM] | Dox/P. a fold change (ratio between intrinsic MIC of the test compound and combination MIC) (P. aeruginosa ATCC 27853 [16]) [fold] | other results
O=C(Cc1c[nH]c2ccccc12)NCCCNCCCCNCCCNC(=O)Cc1c[nH]c2ccccc12 [Compound 14a] | – | – | – | – | – | – | – | – | – | – | – | – | – | MIC C. n [1]: >62 µM; IC50 [2]: > 43 µM; Hemolysis: concentration of compound at 10% hemolytic activity (HC10) (human red blood cells [3]): >43 µM; MIC MRSA (MRSA (ATCC 43300) [4]): >62 µM; MIC K. p [5]: >62 µM; MIC S. a [6]: 200 µM (≈ 103 µg/mL); Dox/P. a fold change (ratio between intrinsic MIC of the test compound and combination MIC) (P. aeruginosa ATCC 27853 [7]): > 4 fold; Dox/P. a: concentration required to restore doxycycline activity (combination MIC) (P. aeruginosa ATCC 27853 [7]): 50 µM; MIC E. c [8]: >200 ^j µM; MIC C. a [9]: >62 µM; MIC A. b [10]: >62 µM; MIC P. a [11]: >200 µM
O=C(Cc1c[nH]c2ccc(Br)cc12)NCCCNCCCCCCCNCCCNC(=O)Cc1c[nH]c2ccc(Br)cc12.O=C(O)C(F)(F)F.O=C(O)C(F)(F)F [Compound 15c, N^1,N^7-Bis(3-(2-(5-bromo-1H-indol-3-yl)acetamido)propyl)heptane-1,7-diaminium 2,2,2-trifluoroacetate] | 106 | 13.2 | 6.62 | > 34 | > 34 | > 34 | 6.62 | >34 | ≤ 0.26 | 12.7 | ≤ 0.26 | ≤ 0.26 | – | mode of antibacterial action (MBC versus MIC) (MRSA (CF-Marseille)): bactericidal; MIC (MRSA (CF-Marseille); Staphylococcus aureus, matches real time growth curve at 18 h, read-out: MIC (classical microdilution methodology)): 12.7 µM; MBC (MRSA (CF-Marseille); Staphylococcus aureus, read-out: minimum bactericidal concentration (MBC)): 12.7 µM; real time growth inhibition (MRSA (CF-Marseille); at 25.4 μM and 12.7 μM): completely inhibited; time after which bacterial growth was detected (MRSA (CF-Marseille); [22]): > 4 h; mode of antibacterial action (MBC versus MIC) (S. aureus ATCC 25923): bactericidal; MIC (S. aureus ATCC 25923; Staphylococcus aureus, ATCC25923, matches real time growth curve at 18 h, read-out: MIC (classical microdilution methodology)): 12.7 µM; MBC (S. aureus ATCC 25923; Staphylococcus aureus, ATCC25923, read-out: minimum bactericidal concentration (MBC)): 12.7 µM; real time growth inhibition (S. aureus ATCC 25923; at 25.4 μM and 12.7 μM): completely inhibited; time after which bacterial growth was detected (S. aureus ATCC 25923; [22]): > 4 h
COc1ccc2[nH]cc(CC(=O)NCCCNCCCCNCCCNC(=O)Cc3c[nH]c4ccc(OC)cc34)c2c1 [Compound 16a] | – | – | – | – | – | – | – | – | – | – | – | – | – | MIC C. n [1]: >55 µM; IC50 [2]: > 40 µM; Hemolysis: concentration of compound at 10% hemolytic activity (HC10) (human red blood cells [3]): >40 µM; MIC MRSA (MRSA (ATCC 43300) [4]): >55 µM; MIC K. p [5]: >55 µM; MIC S. a [6]: 200 µM (≈ 115 µg/mL); Dox/P. a fold change (ratio between intrinsic MIC of the test compound and combination MIC) (P. aeruginosa ATCC 27853 [7]): > 1 fold; Dox/P. a: concentration required to restore doxycycline activity (combination MIC) (P. aeruginosa ATCC 27853 [7]): 200 µM; MIC E. c [8]: >200 µM; MIC C. a [9]: >55 µM; MIC A. b [10]: >55 µM; MIC P. a [11]: >200 µM
Cc1ccc2[nH]cc(CC(=O)NCCCNCCCCCCCCCCCCNCCCNC(=O)Cc3c[nH]c4ccc(C)cc34)c2c1.O=C(O)C(F)(F)F.O=C(O)C(F)(F)F [Compound 17f, N^1,N^12-Bis(3-(2-(5-methyl-1H-indol-3-yl)acetamido)propyl)dodecane-1,12-diaminium 2,2,2-trifluoroacetate] | 226 | 14.1 | 14.1 | > 36 | > 36 | 36 | 226 | ≤0.28 | ≤ 0.28 | 7.06 | ≤ 0.28 | ≤ 0.28 | 1 | –
O=C(Cc1c[nH]c2c(F)cccc12)NCCCNCCCCNCCCNC(=O)Cc1c[nH]c2c(F)cccc12.O=C(O)C(F)(F)F.O=C(O)C(F)(F)F [Compound 18a, N^1,N^4-Bis(3-(2-(7-fluoro-1H-indol-3-yl)acetamido)propyl)butane-1,4-diaminium 2,2,2-trifluoroacetate] | > 256 | 256 | 64.0 | > 41 | > 41 | > 41 | 64.0 | >41 | < 0.2 | 16 | 5.12 | < 0.2 | 4 | –
O=C(Cc1c[nH]c2c(F)cccc12)NCCCNCCCCCCNCCCNC(=O)Cc1c[nH]c2c(F)cccc12.O=C(O)C(F)(F)F.O=C(O)C(F)(F)F [Compound 18b, N^1,N^6-Bis(3-(2-(7-fluoro-1H-indol-3-yl)acetamido)propyl)hexane-1,6-diaminium 2,2,2-trifluoroacetate] | > 247 | > 247 | > 247 | > 40 | > 40 | > 40 | 247 | >40 | < 0.2 | 124 | 39.6 | < 0.2 | > 1 | –
COc1cccc2c(CC(=O)NCCCNCCCCCCCNCCCNC(=O)Cc3c[nH]c4c(OC)cccc34)c[nH]c12.O=C(O)C(F)(F)F.O=C(O)C(F)(F)F [Compound 19c, N^1,N^7-Bis(3-(2-(7-methoxy-1H-indol-3-yl)acetamido)propyl)heptane-1,7-diaminium 2,2,2-trifluoroacetate] | > 236 | 236 | 236 | > 38 | > 38 | > 38 | 118 | >38 | ≤ 0.3 | 29.5 | > 38 | 37.8 | > 2 | –
